# Patent US20210379062A1, “The use of a H3R inverse agonist for the treatment of excessive daytime sleepiness associated with parkinson's disease (PD)” (Novartis AG, priority 2018, published 2021)
# Legend:
# [1] = test system: tele-methylhistamine (tMeHA); assay: Ex vivo PD determination: brain tele-methylhistamine time course in rats; set-up: species or system rat; details: 10 mg/kg oral
# Protocol: Male Sprague-Dawley rats (Shanghai SLAC Laboratory Animal Co. LTD) of 6-7 weeks age were used. Animals were housed in a temperature and humidity-controlled environment on a 12 h light/dark. All animals had free access to food and water. All procedures were approved by Institutional Animal Care and Use Committee of ChemPartner Co., LTD (IACUC Protocol NO: A998HL0002).
# For bioanalysis of brain tissue tele-methylhistamine samples were further processed.
# One aliquot of the stock solution was diluted using ethanol/phosphate buffer pH 7.4 (85:15, v/v) to achieve a series working solutions. The brain homogenate was centrifuged at 12000 rpm for 5 min at 4° C. Then 10 μL supernatant of the brain homogenate sample was added to 60 μL internal standard (d3-1-methyl-histamine, 20 ng/mL). The mixture was vortexed for 2 min and centrifuged at 12000 rpm for 5 min at 4° C. Finally, 60 μL supernatant was added and 3 μL supernatant was injected into LC-MS/MS for analysis (Agilent 6410, triple quadrupole mass spectrometer, Mobile phase A: H2O— 0.1% NH3, Mobile phase B: methanol— 0.1% NH3, Column: Ultimate XB-C18 (2.1×50 mm, 5 μm, Flow rate: 0.45 mL/min, temperature: 40° C.).
# [2] = Rat brain and plasma PK; assay type: in vivo; details: 10 mg/kg oral, rats
# [3] = test system: H3 receptor; assay: Ex vivo receptor occupancy assay in rat frontal cortex; details: rats; for RO: 10 mg/kg oral
# Protocol: Male Sprague-Dawley rats (from Shanghai SLAC Laboratory Animal CO. LTD) at the age of 5-6 weeks were used. The animals were housed in a temperature and humidity-controlled environment on a 12 h light/dark cycle with food and water available ad libitum. All the procedures were approved by Institutional Animal Care and Use Committee of Chempartner Co., LTD (IACUC Protocol NO: A998HL0076).
# Compounds were dissolved in 50 mM citrate buffer (pH 3.5), or saline. The compound was then diluted stepwise to the final concentration with vehicle. Animals were dosed by p.o. or i.v. in 1 ml/kg bodyweight.
# At each time point, rats were decapitated immediately. Intact brain was removed, immersed and washed in pre-cooled saline. After drying with filter paper, frontal cortex was dissected with a double-blade with an about 30° angle starting at ⅓ of anterior rat brain (weight of most brain tissues around 70±10 mg). Brain tissue was transferred into a pre-weighed tube with homogenizer beads. The tubes were weighed again and the tissue net weight was recorded. Tissue sampling was done on ice with intervals of 1 min. Then, 50 mM HEPES (Gibco® by Life Technologies) buffer were added (equivalent to 3.75 μl/mg tissue weight) followed by homogenization (frequency 30/sec for 20 sec, TissueLyser, Quiagen).
# The crude homogenate samples of rat frontal cortex were used to measure H3 receptor binding as described above with [^3H]—N-α-methylhistamine as radioligand. The protein concentration of each sample was determined by Pierce BCA Protein Assay Kit (Thermo).
# The cortical homogenate was added to a 96-well plate containing [^3H]—N-α-methylhistamine (0.1 nM), in a volume of 0.2 ml (final protein concentration 4 μg/μl), incubated at 28° C. for 15 min and the reaction was stopped by rapid filtration using a filtration plate (Millipore multiscreen GF/B plate). The filters were washed three times with ice-cold wash buffer (50 mM Tris, pH 7.5) and 250 μl of Microscint-40 were added followed by determination of the bound radiolabel with a Wallac Microbeta Trilux 2450 (Perkin Elmer). Nonspecific binding was determined in the presence of 10 μM thioperamide. Each data point was obtained from a total of at least four animals. The inhibition of specific [^3H]NAMH binding, calculated as relative to vehicle-treated samples, was determined to provide an indication of receptor occupancy by the compound. The dose-dependent % RO and time course were analyzed using GraphPad Prism. The dose response was fit using GraphPad Prism: log(inhibitor) vs. response with variable slope.
structure (smiles),measurement,setting,value
"Cn1nc(N2CCC(OC(=O)N3CCN(C4CCC4)CC3)CC2)ccc1=O [Compound (I), 1-(1-methyl-6-oxo-1,6-dihydropyridazin-3-yl)piperidin-4-yl 4-cyclobutylpiperazine-1-carboxylate]",time at which tMeHA increase starts,[1],30 min
same,time of tMeHA peak,[1],2 h
same,tMeHA level at 8 h,[1]; 8 h,stayed slightly elevated
same,effect on tMeHA levels,[1]; brain,increased
same,duration of histamine release after compound administration,[1]; deconvolution of the PD data,about 2 h
same,total brain exposure,[2],intermediate
same,brain exposure,[2]; 8 h time point,close to detection limit
same,concentration at 4 h,"[2]; male, Sprague-Dawley, rat, brain, 4 h time point, read-out: brain exposure",21 ng/g
same,RO,[3]; 1 h time point (initial RO),95%
same,RO,[3]; 4 h,50%
same,RO,"[3]; 4 h, listed as LML134",39%
same,RO,[3]; 8 h,0%
same,RO,"[3]; 8 h, listed as LML134",almost not RO was detectable
same,dose that resulted in H3 receptor occupancy of 80-90%,"[3]; oral dosing, 1 h after compound administration",10 mg/kg
